{"source": "patent EP4463162B1", "about": "“CONNEXIN 43 FOR USE IN TREATING BRCA1/2-MUTATED CANCER” (Fundación Profesor Novoa Santos, priority 2022, dated 2023)", "key": {"HCC1937 cells": {"tested_on": "HCC1937 cells", "assay": "Colony formation assay", "type": "cell-based, human", "settings": "100 µM olaparib, seven days, upon Cx43 restitution", "method": "For assessing the clonogenic capacity of tumour cells lines, they were plated as single-cell suspensions (5 000-10 000 cells) in 6 or 12-well plates (Corning) and incubated for 6-7 days with media change every 48 h. After this time, they were washed with PBS, fixed with 4 % PFA for 15 min at room temperature and stained with 0.1 % crystal violet dye (Sigma-Aldrich) for 20 min at room temperature. They were then rinsed with PBS, air dried and photographed. The staining was dissolved with 30 % acetic acid for 10 min on a shaker. The eluent was then transferred to a 96-well plate and the absorbance, indicative of colony growth, measured at 570 nm using a NanoQuant microplate reader Infinite M200 (Tecan).\nFor small extracellular vesicle (sEV) isolation, sEV donor cells were grown in 175 cm^2 flasks (Thermo Fisher Scientific) until 85 % confluence. […] Donor cells final density was calculated, and supernatants derived from the same number of cells were ultracentrifuged at 100 000 x g for 90 min at 4 °C using a Hitachi Ultracentrifuge CP100NX with a P70AT rotor (Hitachi). […]\nCell viability measures were either relativized to untreated controls for each cell line, in order to account for the already reduced proliferation of Cx43-restituted cells (left graph) or reported as raw absorbance values (right graph). […]"}, "HCC1937 spheroids": {"tested_on": "HCC1937 spheroids", "assay": "Three-dimensional tumour spheroid proliferation (spheroid area)", "type": "cell-based, human", "settings": "for spheroid size, Cx43-restituted smaller than EV counterparts: after 8 days, 3000 initial cell density", "method": "The bottom of 96-well flat bottom microplates (Greiner Bio-One) was coated with 1.5 % solution of UltraPure Low Melting Point Agarose (Invitrogen, Thermo Fisher Scientific). Agarose concave bottoms provide non-adhesive conditions and increase cell contacts. 100-200 µL of single-cell suspensions were plated on top of the agarose diluted in their respective media supplemented with 3.5 % Matrigel Matrix Basement Membrane Growth Factor Reduced (Corning) and 5 ng/mL human recombinant EGF (Sigma-Aldrich). Afterwards, plates were incubated under standard cell culture conditions and spheroids were monitored from day 2 onwards by optical microscopy.\nUniform-sized spheroids were produced by plating 3000 EV and Cx43_HCC1937 cells under ultra-low attachment conditions, as well as 5000 Cx43_HCC1937 cells in parallel to account for the expected anti-proliferative effect of Cx43 in untreated tumour cells (day -4) (Figure 7). […] Spheroids were individually tracked during this time and their size was registered every 48 h.\nAfterwards, spheroid area measurements were pooled for each condition and EV spheroids were compared against Cx43_HCC1937 spheroids, either those plated at 3000 or 5000 initial cell densities.\nNext, Cx43 involvement in the TNBC pathogenesis was studied under more physiological approaches, namely 3D spheroid culture (Figure 10.B) and Anoikis-inducing conditions (Figure 10.C). 3D spheroid culture (Figure 10.B) of HCC1937 cells for 12 days further corroborated the reduction in proliferation determined in 2D culture (Figure 10.A) resulting from Cx43 restoration."}}, "data": [{"compound": "O=C(c1cc(Cc2n[nH]c(=O)c3ccccc23)ccc1F)N1CCN(C(=O)C2CC2)CC1", "note": "[Olaparib, olaparib]", "values": [{"measurement": "cell viability (colony formation)", "setting": "HCC1937 cells", "value": "profound decrease in HCC1937 cell viability"}, {"measurement": "spheroid appearance", "setting": "HCC1937 spheroids; Cx43_HCC1937 spheroids (3000 and 5000), 8 days of 600 µM olaparib, vs well-defined EV_HCC1937 spheroids", "value": "almost non-existent"}, {"measurement": "spheroid size, Cx43-restituted smaller than EV counterparts", "setting": "HCC1937 spheroids; olaparib 200 µM", "value": 41.7, "unit": "%"}, {"measurement": "spheroid size, Cx43-restituted smaller than EV counterparts", "setting": "HCC1937 spheroids; olaparib 400 µM", "value": 29.68, "unit": "%"}, {"measurement": "spheroid size, Cx43-restituted smaller than EV counterparts", "setting": "HCC1937 spheroids; olaparib 600 µM", "value": 12.57, "unit": "%"}]}]}
